From the CheMixHub viscosity set

Test: xn = mol fraction of the nth substance listed

CC(C)Cc1ccccc1 + COC(=O)c1ccccc1
viscosity [mPa·s], 101 kPa
Settings	x2 = 0.1256	x2 = 0.2427	x2 = 0.355	x2 = 0.4602	x2 = 0.5572	x2 = 0.6486	x2 = 0.7454	x2 = 0.8333	x2 = 0.9166
303.15 K	0.957	1.001	1.057	1.127	1.195	1.274	1.363	1.467	1.555
313.15 K	0.824	0.862	0.908	0.961	1.011	1.075	1.145	1.215	1.288

CCC(C)CC + COC(C)(C)C
298.15 K, 101.33 kPa
Settings	viscosity [mPa·s]
x2 = 0.0876	0.2925
x2 = 0.1993	0.2945
x2 = 0.2983	0.2972
x2 = 0.3943	0.3008
x2 = 0.5016	0.3049
x2 = 0.5934	0.3089
x2 = 0.6935	0.3139
x2 = 0.7963	0.3199
x2 = 0.8984	0.3268

CC(C)CN + COCCO
298.15 K, 101 kPa
Settings	viscosity [mPa·s]
x2 = 0.05	0.614
x2 = 0.1001	0.666
x2 = 0.1511	0.719
x2 = 0.2	0.788
x2 = 0.2513	0.869
x2 = 0.2996	0.95
x2 = 0.3519	1.043
x2 = 0.4002	1.132
x2 = 0.4491	1.221
x2 = 0.4989	1.308
x2 = 0.5501	1.387
x2 = 0.6	1.457
x2 = 0.6521	1.52
x2 = 0.6999	1.567
x2 = 0.7502	1.608
x2 = 0.8	1.632
x2 = 0.8512	1.643
x2 = 0.9	1.641
x2 = 0.9492	1.609

O=C1CCCN1 + COCCO
298.15 K, 101 kPa
Settings	viscosity [mPa·s]
x1 = 0.0049	1.544
x1 = 0.0127	1.567
x2 = 0.0059	14.01
x2 = 0.0144	13.59
x2 = 0.0218	13.27
x2 = 0.0326	12.77
x2 = 0.0446	12.37
x2 = 0.0689	11.33
x2 = 0.0849	10.74
x2 = 0.1078	10.07
x2 = 0.127	9.467
x2 = 0.1824	8.072
x2 = 0.2392	6.994
x2 = 0.2918	6.075
x2 = 0.3249	5.599
x2 = 0.3711	5.006
x2 = 0.4202	4.585
x2 = 0.5242	3.631
x2 = 0.5773	3.264
x2 = 0.6342	2.895
x2 = 0.6686	2.717
x2 = 0.7286	2.446
x2 = 0.7755	2.248
x2 = 0.8174	2.089
x2 = 0.8558	1.966
x2 = 0.9003	1.819
x2 = 0.9214	1.756
x2 = 0.9381	1.703
x2 = 0.9524	1.669
x2 = 0.9729	1.604
